Source: ChEMBL document CHEMBL1201862, “PubChem BioAssay data set” (2004)
Activity calls are given as the source filed them.

Experiments:
[1] = tested on: Streptococcus sp. 'group A'; experiment: Streptococcus pyogenes SK(-)GAS viability under kanamycin – luminescence, BacTiterGlo, confirmation, counter-screen for streptokinase expression inhibitor project, dose response (AID 1900); format: functional, organism-based
[2] = biological target: T1, Streptokinase A (Streptococcus pyogenes serotype M1, UniProt P10520); experiment: viability-normalized secreted streptokinase activity reduction – plasminogen activation absorbance, OD405, dose response (AID 1914); format: functional, Streptococcus pyogenes M1 GAS;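 also: secreted streptokinase activity via plasminogen activation per viability signal from cell pellet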
T1 sequence (P10520 whole entry): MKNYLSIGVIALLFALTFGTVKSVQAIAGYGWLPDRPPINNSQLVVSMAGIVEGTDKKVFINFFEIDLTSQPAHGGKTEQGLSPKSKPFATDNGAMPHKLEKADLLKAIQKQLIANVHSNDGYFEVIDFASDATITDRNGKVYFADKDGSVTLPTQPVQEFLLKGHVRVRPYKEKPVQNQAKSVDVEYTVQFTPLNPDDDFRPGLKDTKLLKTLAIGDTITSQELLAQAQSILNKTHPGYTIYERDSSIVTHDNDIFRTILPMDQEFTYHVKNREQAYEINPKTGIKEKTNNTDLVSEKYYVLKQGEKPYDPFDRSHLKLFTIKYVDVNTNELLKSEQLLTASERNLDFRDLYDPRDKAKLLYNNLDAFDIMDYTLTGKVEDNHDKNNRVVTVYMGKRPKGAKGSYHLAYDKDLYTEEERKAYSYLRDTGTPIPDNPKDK

[3] = cells; format: functional
[4] = tested on: Streptococcus; experiment: GAS UMAA2166 growth inhibition – luminescence, BacTiterGlo, counter-screen for streptokinase expression inhibitor project, dose response (AID 1915); format: functional, organism-based;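 also: potency for reduction of bacterial viability or growth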
[5] = biological target: Cytochrome P450 2C19 (Homo sapiens, UniProt P33261); experiment: Cytochrome panel assay with activity outcomes. Panel member name: p450-cyp2c19 Compounds with AC50 equal or less than 10 uM are considered active; format: functional; conditions: read-out: AC50
Chain of Cytochrome P450 2C19 (P33261 whole entry, the tested form may be a part): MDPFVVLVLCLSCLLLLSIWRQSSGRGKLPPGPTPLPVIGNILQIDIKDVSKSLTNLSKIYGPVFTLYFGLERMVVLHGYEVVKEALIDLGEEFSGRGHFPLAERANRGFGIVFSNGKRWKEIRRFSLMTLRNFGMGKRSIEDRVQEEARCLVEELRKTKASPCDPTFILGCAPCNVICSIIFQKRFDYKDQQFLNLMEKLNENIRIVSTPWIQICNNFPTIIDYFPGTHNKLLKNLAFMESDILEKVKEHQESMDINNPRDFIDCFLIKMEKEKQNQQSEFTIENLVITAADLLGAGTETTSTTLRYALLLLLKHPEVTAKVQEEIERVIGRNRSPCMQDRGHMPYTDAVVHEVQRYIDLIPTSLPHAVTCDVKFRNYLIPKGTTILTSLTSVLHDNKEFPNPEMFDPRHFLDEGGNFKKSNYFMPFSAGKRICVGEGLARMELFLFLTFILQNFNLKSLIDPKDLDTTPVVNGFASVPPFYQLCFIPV

[6] = biological target: T2, Carboxy-terminal domain RNA polymerase II polypeptide A small phosphatase 1 (Homo sapiens, UniProt Q9GZU7); experiment: CTDSP1 inhibitors, concentration-response, biochemical, absorbance readout, ultra-high-throughput screen actives (AID 540297); format: functional
T2 sequence (Q9GZU7 whole entry): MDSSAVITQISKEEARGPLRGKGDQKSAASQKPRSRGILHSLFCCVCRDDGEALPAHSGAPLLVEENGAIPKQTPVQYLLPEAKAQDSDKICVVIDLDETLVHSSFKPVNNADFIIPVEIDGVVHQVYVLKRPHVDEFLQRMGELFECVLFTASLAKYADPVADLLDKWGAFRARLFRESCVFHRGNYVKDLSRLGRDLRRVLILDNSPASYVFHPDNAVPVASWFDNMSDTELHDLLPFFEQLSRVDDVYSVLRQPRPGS

[7] = biological target: T3, Replicative DNA helicase DnaB (Mycobacterium tuberculosis, UniProt P9WMR3); experiment: DnaB intein splicing inhibitors, dose response, biochemical, cell-free fluorescence (AID 449749); format: functional
T3 sequence (P9WMR3 whole entry): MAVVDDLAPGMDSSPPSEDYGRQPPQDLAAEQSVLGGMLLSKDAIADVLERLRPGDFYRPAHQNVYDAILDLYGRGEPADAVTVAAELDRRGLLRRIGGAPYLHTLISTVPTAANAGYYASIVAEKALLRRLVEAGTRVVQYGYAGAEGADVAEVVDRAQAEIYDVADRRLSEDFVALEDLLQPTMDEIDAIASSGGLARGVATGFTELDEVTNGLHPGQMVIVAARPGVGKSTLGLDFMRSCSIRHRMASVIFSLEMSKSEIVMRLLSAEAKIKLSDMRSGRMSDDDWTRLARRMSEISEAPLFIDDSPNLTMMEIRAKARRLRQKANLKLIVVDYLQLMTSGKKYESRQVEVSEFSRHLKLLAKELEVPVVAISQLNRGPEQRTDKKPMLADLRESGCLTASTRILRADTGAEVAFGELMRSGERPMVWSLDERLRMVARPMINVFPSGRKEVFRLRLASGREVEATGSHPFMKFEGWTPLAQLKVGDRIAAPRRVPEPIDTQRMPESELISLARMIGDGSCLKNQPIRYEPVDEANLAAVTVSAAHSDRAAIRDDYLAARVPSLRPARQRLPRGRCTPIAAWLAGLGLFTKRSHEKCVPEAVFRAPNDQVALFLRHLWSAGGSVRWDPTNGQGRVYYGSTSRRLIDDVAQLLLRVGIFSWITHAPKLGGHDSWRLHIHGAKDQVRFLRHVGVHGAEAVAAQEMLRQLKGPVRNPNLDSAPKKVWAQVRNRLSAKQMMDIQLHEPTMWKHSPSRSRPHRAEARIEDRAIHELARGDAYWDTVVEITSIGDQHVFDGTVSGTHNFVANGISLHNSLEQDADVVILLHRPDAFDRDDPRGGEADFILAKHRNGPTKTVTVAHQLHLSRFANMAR

[8] = biological target: T4, Protein RecA (Mycobacterium tuberculosis, UniProt P9WHJ3); experiment: Fluorescence Cell-Free Homogeneous Dose Retest to Identify Inhibitors of RecA-Intein Splicing Activity. [Related pubchem assays (depositor defined):AID2097, AID2223, AID489010, AID492950]; format: functional
T4 sequence (P9WHJ3 whole entry): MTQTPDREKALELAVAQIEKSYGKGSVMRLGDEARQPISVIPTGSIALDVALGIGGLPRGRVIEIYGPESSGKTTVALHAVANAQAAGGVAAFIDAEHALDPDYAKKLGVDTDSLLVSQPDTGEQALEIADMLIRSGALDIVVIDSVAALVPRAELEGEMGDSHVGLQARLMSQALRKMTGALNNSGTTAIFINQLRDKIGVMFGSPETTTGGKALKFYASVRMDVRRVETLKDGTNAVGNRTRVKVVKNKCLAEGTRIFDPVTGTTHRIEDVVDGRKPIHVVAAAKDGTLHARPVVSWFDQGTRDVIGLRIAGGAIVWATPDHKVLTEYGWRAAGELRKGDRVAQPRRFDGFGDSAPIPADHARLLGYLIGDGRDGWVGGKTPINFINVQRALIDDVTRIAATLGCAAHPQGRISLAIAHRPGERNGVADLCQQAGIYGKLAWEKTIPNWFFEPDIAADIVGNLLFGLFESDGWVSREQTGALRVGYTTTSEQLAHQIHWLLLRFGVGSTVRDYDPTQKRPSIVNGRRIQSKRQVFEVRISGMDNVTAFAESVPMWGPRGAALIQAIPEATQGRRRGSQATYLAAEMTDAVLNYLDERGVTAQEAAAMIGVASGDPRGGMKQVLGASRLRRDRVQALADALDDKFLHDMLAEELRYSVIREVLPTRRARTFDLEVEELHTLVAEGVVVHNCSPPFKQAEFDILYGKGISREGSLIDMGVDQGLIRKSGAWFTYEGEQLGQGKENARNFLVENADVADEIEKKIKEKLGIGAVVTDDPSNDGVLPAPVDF

[9] = tested on: BJ; experiment: cells; format: functional, cell-based; conditions: Homo sapiens
[10] = DRD fibroblast viability loss – cell-based, non-viral oncogenic, luminescence, dose response (AID 1934); format: functional; conditions: Homo sapiens
[11] = viability of uninfected HEp-2 cells – cell-based, HTS, cytotoxicity control for RSV inhibitor project, dose response (AID 2410); format: functional; conditions: human respiratory syncytial virus
[12] = tested on: BJ; experiment: BJ-TERT fibroblast viability loss – cell-based, RAS-independent, luminescence, dose response (AID 1933); format: functional; conditions: Homo sapiens
[13] = tested on: BJ; experiment: BJ-TERT-LT-ST fibroblast viability loss – cell-based, RAS-independent, luminescence, dose response (AID 1935); format: functional; conditions: Homo sapiens;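 also: BJ fibroblasts immortalized with TERT plus LT and ST oncogenes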
[14] = non-specific 3'UTR reporter inhibition in Clone20-Shn3RL – cell-based, Renilla luciferase, cherry-picked, counter-screen for Shn3 inhibitor project, dose response (AID 624133); format: functional
[15] = reduction of Shn3 3'UTR-driven luciferase in osteoblasts – cell-based, Clone20 osteoblasts, firefly luciferase, cherry-picked, dose response (AID 624132); format: functional;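 also: firefly luciferase luminescence from reporter carrying the Shn3 3'UTR in osteoblasts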
[16] = intracellular Trypanosoma cruzi inhibitors in host cells – cell-based, plate reader, cherry-pick samples, set 3, dose response (AID 651818); format: functional;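 also: compounds incubated with infected cells for about four days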
[17] = P. falciparum Dd2 growth inhibitors, dose response, SYBR Green, cherry-picked samples (AID 1159567); format: functional, cell-based

## CCOc1ccccc1C(=O)OCC(=O)Nc1nnc(-c2ccccc2)o1
[1]
  EC50: 4.56 µM (active)
[2]
  EC50: > 150 µM (not active)
[3]
  IC50: 19.2 µM (active)
[4]
  EC50: 14.6 µM (active)

## Cc1ccc2cc(C)c3nnc(SCC(=O)NCc4ccco4)n3c2c1
[5]
  AC50: 14.1 µM (inconclusive)
[6]
  IC50: 8.54 µM (active)

## CCOc1ccc(CNC(=O)Cn2nc(C)c3c(C)n(-c4ccc(C)cc4)nc3c2=O)cc1
[6]
  IC50: 6.46 µM (active)

## O=C(Cn1cnc2sc(-c3ccccc3)cc2c1=O)NCc1ccccc1
[6]
  IC50: 7.5 µM (active)

## C=C(C)CCOC(=O)C(CC(=O)O)NCc1ccco1 (stereo not drawn)
[6]
  IC50: 4.85 µM (active)

## O=C(NC(=S)N1CCN(C/C=C/c2ccccc2)CC1)c1ccco1
[3]
  IC50: 32.2 µM (active)

## Sc1c2c(nc3ncnn13)CCC2
[3]
  IC50: 16.6 µM (active)

## CCCOC(=O)c1ccc(-c2ccc(C=O)o2)cc1
[3]
  IC50: 9.73 µM (active)

## CCC(C)N(CC(=O)Nc1cccc(C)c1C)C(=O)CCl (stereo not drawn)
[7]
  AC50: 57.3 µM (active)
[8]
  EC50: 8.81 µM (active)
[9]
  EC50: 5.48 µM (active)
[10]
  EC50: 3.8 µM (active)
[11]
  CC50: 8.39 µM (active)
[12]
  EC50: 0.608 µM (active)
[13]
  EC50: 10.8 µM (active)

## COc1cc(Cl)c(C)cc1NC(=O)CSc1sc2c(O)cc(=O)[nH]c2c1C#N
[6]
  IC50: 2.46 µM (active)

## O=C(C1=C[C@@H](C2CC2)C[C@@H](OCCCCO)O1)N1CCN(Cc2ccccc2)CC1
[14]
  AC50: > 70 µM (inactive)
[15]
  AC50: > 70 µM (inactive)

## CC1=CC(C)(C)N(C(=O)CCl)c2cc(C)ccc21
[9]
  EC50: > 150 µM (not active)
[10]
  EC50: 29.8 µM (active)
[12]
  EC50: 5.77 µM (active)
[13]
  EC50: > 150 µM (not active)

## NC(=O)c1ccc(NC(=O)COC(=O)c2cc3c(s2)CCC3)cc1
[6]
  IC50: 4.91 µM (active)

## C[C@@H]1CCCCO[C@H](CN(C)Cc2ccc(Cl)c(Cl)c2)[C@@H](C)CN([C@H](C)CO)C(=O)c2cc(NC(=O)CCCCCC(=O)Nc3ccccc3N)ccc2O1
[16]
  AC50: 2.65 µM (active)

## C[C@H]1CN([C@@H](C)CO)C(=O)Cc2cc(N(C)C)ccc2O[C@@H]1CN(C)Cc1ccc(Cl)c(Cl)c1
[16]
  AC50: 2.09 µM (active)

## Cc1ccc(S(=O)(=O)Nc2ccc3c(c2)C(=O)N([C@@H](C)CO)C[C@H](C)[C@@H](CN(C)Cc2ccc(-c4ccccc4)cc2)O3)cc1
[16]
  AC50: 3.88 µM (active)

## C[C@@H]1CN([C@@H](C)CO)C(=O)c2cccc(NC(=O)Nc3ccc4c(c3)OCO4)c2O[C@H]1CN(C)Cc1ccc(Cl)c(Cl)c1
[16]
  AC50: 2.22 µM (active)

## C[C@H]1CN([C@@H](C)CO)C(=O)Cc2cc(NC(=O)Nc3ccc4c(c3)OCO4)ccc2O[C@H]1CN(C)Cc1ccc(-c2ccccc2)cc1
[16]
  AC50: 6.07 µM (active)

## C[C@@H]1CCCCO[C@H](CN(C)Cc2ccc(C(=O)Nc3ccccc3N)cc2)[C@@H](C)CN([C@H](C)CO)C(=O)c2cc(NS(=O)(=O)c3ccc(Cl)cc3)ccc2O1
[16]
  AC50: 1.11 µM (active)

## C[C@@H]1CCCCO[C@@H](CN(C)CC2CCCCC2)[C@@H](C)CN([C@H](C)CO)C(=O)c2cc(NC(=O)Nc3ccc(F)cc3)ccc2O1
[16]
  AC50: 1.64 µM (active)

## CC(C)NC(=O)N(C)C[C@H]1Oc2c(NC(=O)c3cnccn3)cccc2C(=O)N([C@H](C)CO)C[C@H]1C
[16]
  AC50: 3.41 µM (active)

## C[C@@H]1CCCCO[C@H](CN(C)C(=O)Nc2ccc(C(F)(F)F)cc2)[C@@H](C)CN([C@H](C)CO)C(=O)c2cc(NC(=O)NC3CCCCC3)ccc2O1
[16]
  AC50: 2.45 µM (active)

## C[C@@H]1CN([C@@H](C)CO)C(=O)c2cccc(NC(=O)CCCCCC(=O)Nc3ccccc3N)c2O[C@H]1CN(C)Cc1ccc(Oc2ccccc2)cc1
[16]
  AC50: 2.21 µM (active)

## C[C@H](CO)N1C[C@H](C)[C@@H](CN(C)Cc2ccc3c(c2)OCO3)Oc2c(NC(=O)CCCCCC(=O)Nc3ccccc3N)cccc2C1=O
[16]
  AC50: 2.21 µM (active)

## CC(C)C#Cc1ccc([C@@H]2[C@H](CO)N3CCCCN(C(=O)c4ccc5c(c4)OCO5)C[C@@H]23)cc1
[17]
  AC50: 5.18 µM (active)

## C[C@@H]1CN([C@H](C)CO)C(=O)c2cccc(NS(=O)(=O)c3cccs3)c2O[C@H]1CN(C)Cc1ccc(C(F)(F)F)cc1
[17]
  AC50: 7.6 µM (active)

## COc1ccccc1-c1cccc(-c2nc(C(=O)Nc3nccs3)cc3c2[C@H](CCO)N(C(=O)CC2CC2)C3)c1
[17]
  AC50: 4.27 µM (active)

## CC(C)(C)[S@+]([O-])N1Cc2cc(C(=O)NCCN3CCCC3)nc(-c3cccc(-c4ccc(C#N)cc4)c3)c2[C@@H]1CCO
[17]
  AC50: 6.6 µM (active)

## CO[C@@H]1CN(C)C(=O)c2ccc(NC(=O)NC3CCCCC3)cc2OC[C@@H](C)N(CCc2ccccc2)C[C@H]1C
[17]
  AC50: 5.41 µM (active)
